Assay: Laundry test followed by SPME GC/MS headspace analysis of cotton tracers
Conditions: headspace of the perfume ingredient above wet cotton tracers, Ex 1 (PQ22) versus Ex A (nil-PQ22)
Description: 100% cotton fabric cut into 30x30cm squares were washed in a mixed cotton/polycotton load of total 3kg in a front load washing machine (Miele 1935) at 40°C cotton short setting, with 2 rinses, using 2.67 mmol/L Ca (15 gpg) water hardness. A 55 ml dose of the respective detergent was added to a dosing cup and placed inside the washing machine. After the wash cycle was finished, the full load was tumbled (using a Miele Novotronic, type: TD7634) for about 1 hour. Table 1: Inventive detergent composition (Ex 1) and comparative laundry detergent composition (Ex A) used in the laundry test:
The load was washed and dried three consecutive times, then placed back into a washing machine After a fourth wash cycle, the wet cotton tracers were separated and packed in aluminium foil until they were ready to be analysed for headspace.
The headspace was analysed using solid […] (SPME) chromatography using the following procedure: • 1. One piece of 4x4 cm cotton tracers were transferred to 25 ml headspace vials. • 2. The fabric samples were equilibrated for 10 minutes at 65°C. • 3. The headspace above the fabrics was sampled via SPME (50/30µm DVB/Carboxen/PDMS) for 5 minutes. • 4. The SPME fiber was subsequently thermally desorbed into the GC. • 5. The analytes were analyzed by GC/MS (GC: Agilent 8890 and MS: Agilent 5977B MS) in full scan mode. The total perfume HS response and perfume headspace composition above the tested legs could be determined.

Row | Molecule | % increase Ex 1 vs Ex A
1 | 3-(3,3-dimethyl-2,3-dihydro-1H-inden-5-yl)propanal mixt. wth 3-(1,1-dimethyl-2,3-dihydro-1H-inden-5-yl)propanal [Neo Hivernal] | -58%
2 | C=CCOC(=O)COCCC(C)C [Allyl amyl glycolate, allyl 2-(isopentyloxy)acetate] | 2003%
3 | CC1=CCC2CC1C2(C)C (stereo not drawn) [Alpha pinene, 2,6,6-trimethylbicyclo(3.1.1)hept-2-ene] | -33%
4 | COc1ccc(C=O)cc1 [Anisic aldehyde, 4-methoxybenzaldehyde] | 854%
5 | CC(=O)OCc1ccccc1 [Benzyl acetate, benzyl acetate] | 1840%
6 | COc1ccc2ccccc2c1 [Beta napthol methyl ether, 2-methoxynaphthalene] | 104%
7 | CC(C)=CCCC(C)CCO (stereo not shown) [Citronellol, 3,7-dimethyloct-6-en-1-ol] | 108%
8 | CC(C)=CCCC(C)CC#N (stereo not shown) [Citronellyl nitrile, 3,7-dimethyloct-6-enenitrile] | 457%
9 | CC1/C=C/CCCCCCCCCCC(=O)C1 (stereo not shown) [Delta muscenone, (E)-3-methylcyclopentadec-4-en-1-one] | -27%
10 | CCOC(=O)C1OC1(C)c1ccccc1 (stereo not shown) [Ethyl methyl phenyl glycidate, ethyl 3-methyl-3-phenyloxirane-2-carboxylate] | inf
11 | CCOC(=O)C1=C(C)C=CCC1(C)C [Ethyl safranate, ethyl 2,6,6-trimethylcyclohexa-1,3-diene-1-carboxylate] | 26%
12 | O=C1CCCCCCCCCCCCCCO1 [Exaltolide total, oxacyclohexadecan-2-one] | -33%
13 | CC(C)c1cccc(C(C)CC=O)c1 (stereo not shown) [Florhydral, 3-(3-isopropylphenyl)butanal] | -60%
14 | CCC(=O)OCC(C)(C)OC(C)C1CCCC(C)(C)C1 (stereo not shown) [Helvetolide, 2-(1-(3,3-dimethylcyclohexyl)ethoxy)-2-methylpropyl propionate] | -50%
15 | CC(=O)/C=C/C1=C(C)CCCC1(C)C [Ionone beta, (E)-4-(2,6,6-trimethylcyclohex-1-en-1-yl)but-3-en-2-one] | 18%
16 | CCCC(=O)OCCC(C)C [Isoamyl butyrate, isopentyl butyrate] | 8685%
17 | C=C(C)C1CC=C(C)C(=O)C1 (stereo not shown) [Laevo carvone, 2-methyl-5-(prop-1-en-2-yl)cyclohex-2-en-1-one] | 468%
18 | CC(C=O)Cc1ccc(C(C)(C)C)cc1 (stereo not shown) [Lilial, 3-(4-(tert-butyl)phenyl)-2-methylpropanal] | -55%
19 | C=CC(C)(O)CCC=C(C)C (stereo not shown) [Linalool, 3,7-dimethylocta-1,6-dien-3-ol] | 42%
20 | C=CC(C)(CCC=C(C)C)OC(=O)CC (stereo not shown) [Linalyl propionate, 3,7-dimethylocta-1,6-dien-3-yl propionate] | -50%
21 | CC(=O)c1ccc2ccccc2c1 [Methyl Beta-napthyl ketone, 1-(naphthalen-2-yl)ethan-1-one] | 268%
22 | COC(=O)c1ccccc1O [Methyl salicylate, methyl 2-hydroxybenzoate] | 915%
23 | CCCCCCCC=O [Octyl Aldehyde, octanal] | 16%
24 | COc1ccc(C)cc1 [Para cresyl methyl ether, 1-methoxy-4-methylbenzene] | 13731%
25 | CC(C)(O)CCc1ccccc1 [Phenyl ethyl dimethyl carbinol, 2-methyl-4-phenylbutan-2-ol] | 1106%

Source: EP4245832B1, “DETERGENT COMPOSITIONS” (The Procter & Gamble Company, priority 2022, dated 2023)
